Patent US9682083B2, “Pyrrolo[2,3-D]pyrimidine derivatives, process for their preparation and their use as kinase inhibitors” (NERVIANO MEDICAL SCIENCES S.R.L., priority 2013, dated 2017)

What was measured:
Type in all cases: cell-based
A2780 ovarian carcinoma = assay: In vitro cell proliferation assay (CellTiterGlo), A2780 control line; settings: Homo sapiens, antiproliferative activity, 72 hours exposure, non RET-dependent control cell line
Procedure: (§1) In Vitro Cell Proliferation Assay
(§2) To evaluate the antiproliferative activity of a compound of formula (I) the following human cell lines were used: A2780 ovarian carcinoma; TT and MZ-CRC-1 medullary thyroid carcinoma, harboring a mutated RET-C634W and RET-M918T receptor respectively; LC-2/ad human lung adenocarcinoma, harboring the CCDC6-RET fusion protein. Exponentially growing cells were seeded and incubated at 37° C. in a humidified 5% CO2 atmosphere using appropriate medium supplemented with 10% Fetal Bovine Serum. 24 hours following cell plating, scalar doses of the compounds dissolved in 0.1% DMSO were added to the medium and cells were exposed to drugs for either 72 hours (A2780) or 144 hours (TT, MZ-CRC-1 and LC-2/ad), according to their different proliferation rate. At the end of treatment, cell proliferation was determined by an intracellular ATP monitoring system (CellTiterGlo—Promega), following manufacturer's instructions, and using an Envision instrument (PerkinElmer) as reader. Data obtained from compound versus vehicle treated cells were compared using Assay Explorer (Symyx Technologies Inc) software. IC50 values were calculated using sigmoidal interpolation curve fitting.
(§3) In the following Table A the antiproliferative activity of representative compounds of formula (I) on two medullary thyroid carcinoma cell lines expressing the aforementioned mutated forms of RET (TT and MZ-CRC-1) and on one lung adenocarcinoma cell line harboring the aforementioned fusion form of RET (LC-2/ad) is reported. As control, the antiproliferative activity of the same compounds on an unrelated non RET-dependent cell line (A2780) is reported. All these compounds show remarkable activity on RET-driven cellular models with respect to the unrelated ones.

[1] = test system: TT medullary thyroid carcinoma, harboring a mutated RET-C634W receptor; assay: In vitro cell proliferation assay (CellTiterGlo), TT; settings: Homo sapiens, antiproliferative activity, 144 h exposure
Procedure: as §1, §2, §3

[2] = test system: LC-2/ad human lung adenocarcinoma, harboring the CCDC6-RET fusion protein; assay: In vitro cell proliferation assay (CellTiterGlo), LC-2/ad; settings: antiproliferative activity, 144 h exposure
Procedure: as §1, §2, §3

[3] = test system: MZ-CRC-1 medullary thyroid carcinoma, harboring a mutated RET-M918T receptor; assay: In vitro cell proliferation assay (CellTiterGlo), MZ-CRC-1; settings: Homo sapiens, antiproliferative activity, 144 h exposure
Procedure: as §1, §2, §3

IC50 (A2780 ovarian carcinoma) [nM]	IC50 [1] [µM]	IC50 [2] [µM]	IC50 [3] [µM]	SMILES
6900	0.865			Nc1ncnc2[nH]cc(C#Cc3cccc(NC(=O)c4ccccc4)c3)c12 [cmpd 9, N-{3-[(4-amino-7H-pyrrolo[2,3-d]pyrimidin-5-yl)ethynyl]phenyl}benzamide]
601	0.249			Nc1ncnc2[nH]cc(C#Cc3cccc(NC(=O)Cc4cccc(C(F)(F)F)c4)c3)c12 [cmpd 11, N-[3-(4-Amino-7H-pyrrolo[2,3-d]pyrimidin-5-ylethynyl)-phenyl]-2-(3-trifluoromethyl-phenyl)-acetamide]
695	0.012	0.111	0.222	CCN1CCN(Cc2ccc(NC(=O)Cc3cccc(C#Cc4c[nH]c5ncnc(N)c45)c3)cc2C(F)(F)F)CC1 [cmpd 12, 2-[3-(4-Amino-7H-pyrrolo[2,3-d]pyrimidin-5-ylethynyl)-phenyl]-N-[4-(4-ethyl-piperazin-1-ylmethyl)-3-trifluoromethyl-phenyl]-acetamide]
4360	0.192			Nc1ncnc2[nH]cc(C#Cc3cccc(C(=O)NC4CC4)c3)c12 [cmpd 15, 3-[(4-amino-7H-pyrrolo[2,3-d]pyrimidin-5-yl)ethynyl]-N-cyclopropylbenzamide]
137	0.003	0.066	0.024	Nc1ncnc2[nH]cc(C#Cc3cccc(NC(=O)c4cccc(C(F)(F)F)c4)c3)c12 [cmpd 24, N-{3-[(4-amino-7H-pyrrolo[2,3-d]pyrimidin-5-yl)ethynyl]phenyl}-3-(trifluoromethyl)benzamide]
3670	0.14	0.49		Nc1ncnc2[nH]cc(C#Cc3cccc(NC(=O)c4cccc(F)c4)c3)c12 [cmpd 26, N-{3-[(4-amino-7H-pyrrolo[2,3-d]pyrimidin-5-yl)ethynyl]phenyl}-3-fluorobenzamide]
4450	0.111			Cc1ccc(C(=O)Nc2cccc(C#Cc3c[nH]c4ncnc(N)c34)c2)cc1 [cmpd 31, N-{3-[(4-amino-7H-pyrrolo[2,3-d]pyrimidin-5-yl)ethynyl]phenyl}-4-methylbenzamide]
4320	0.023	0.02		CN1CCC(n2cc(C#Cc3cccc(C(=O)NC4CC4)c3)c3c(N)ncnc32)CC1 [cmpd 46, 3-{[4-amino-7-(1-methylpiperidin-4-yl)-7H-pyrrolo[2,3-d]pyrimidin-5-yl]ethynyl}-N-cyclopropylbenzamide]
1590	0.016	0.019		Cc1ccc(C(=O)NC2CC2)cc1C#Cc1cn(C(C)C)c2ncnc(N)c12 [cmpd 51, 3-{[4-amino-7-(propan-2-yl)-7H-pyrrolo[2,3-d]pyrimidin-5-yl]ethynyl}-N-cyclopropyl-4-methylbenzamide]
837	0.01	0.009		CC(C)n1cc(C#Cc2cc(C(=O)NC3CC3)ccc2F)c2c(N)ncnc21 [cmpd 53, 3-{[4-amino-7-(propan-2-yl)-7H-pyrrolo[2,3-d]pyrimidin-5-yl]ethynyl}-N-cyclopropyl-4-fluorobenzamide]
539	0.004	0.004		CC(C)n1cc(C#Cc2cc(F)cc(C(=O)NC3CC3)c2)c2c(N)ncnc21 [cmpd 58, 3-{[4-amino-7-(propan-2-yl)-7H-pyrrolo[2,3-d]pyrimidin-5-yl]ethynyl}-N-cyclopropyl-5-fluorobenzamide]
7180	0.043	0.021		Nc1ncnc2c1c(C#Cc1cccc(C(=O)NC3CC3)c1)cn2-c1cccnc1 [cmpd 68, 3-{[4-amino-7-(pyridin-3-yl)-7H-pyrrolo[2,3-d]pyrimidin-5-yl]ethynyl}-N-cyclopropylbenzamide]
> 10000	0.213	0.213		COc1cccc(-n2cc(C#Cc3cccc(C(=O)NC4CC4)c3)c3c(N)ncnc32)c1 [cmpd 70, 3-{[4-amino-7-(3-methoxyphenyl)-7H-pyrrolo[2,3-d]pyrimidin-5-yl]ethynyl}-N-cyclopropylbenzamide]
46	0.001	0.004		CCN1CCN(Cc2ccc(NC(=O)c3cccc(C#Cc4cn(C(C)C)c5ncnc(N)c45)c3)cc2C(F)(F)F)CC1 [cmpd 82, 3-{[4-amino-7-(propan-2-yl)-7H-pyrrolo[2,3-d]pyrimidin-5-yl]ethynyl}-N-{4-[(4-ethylpiperazin-1-yl)methyl]-3-(trifluoromethyl)phenyl}benzamide]
1600	0.03	0.024		CCC(C)n1cc(C#Cc2cccc(C(=O)NC3CC3)c2)c2c(N)ncnc21 (stereo not shown) [cmpd 85, 3-{[4-amino-7-(butan-2-yl)-7H-pyrrolo[2,3-d]pyrimidin-5-yl]ethynyl}-N-cyclopropylbenzamide]
1910	0.025	0.018		Nc1ncnc2c1c(C#Cc1cccc(C(=O)NC3CC3)c1)cn2CCF [cmpd 86, 3-{[4-amino-7-(2-fluoroethyl)-7H-pyrrolo[2,3-d]pyrimidin-5-yl]ethynyl}-N-cyclopropylbenzamide]
1520	0.019	0.012		CCn1c(C)c(C#Cc2cccc(C(=O)NC3CC3)c2)c2c(N)ncnc21 [cmpd 87, 3-[(4-amino-7-ethyl-6-methyl-7H-pyrrolo[2,3-d]pyrimidin-5-yl)ethynyl]-N-cyclopropylbenzamide]
1520	0.052	0.048		CC1(Cn2cc(C#Cc3cccc(C(=O)NC4CC4)c3)c3c(N)ncnc32)COC1 [cmpd 88, 3-({4-amino-7-[(3-methyloxetan-3-yl)methyl]-7H-pyrrolo[2,3-d]pyrimidin-5-yl}ethynyl)-N-cyclopropylbenzamide]
6690	0.136	0.127		CN1CCC(n2cc(C#Cc3cccc(C(=O)NC4CC4)c3)c3c(N)ncnc32)C1 (stereo not shown) [cmpd 89, 3-{[4-amino-7-(1-methylpyrrolidin-3-yl)-7H-pyrrolo[2,3-d]pyrimidin-5-yl]ethynyl}-N-cyclopropylbenzamide]
2450	0.06	0.032		Nc1ncnc2c1c(C#Cc1cccc(C(=O)NC3CC3)c1)cn2CC1CCC1 [cmpd 95, 3-{[4-amino-7-(cyclobutylmethyl)-7H-pyrrolo[2,3-d]pyrimidin-5-yl]ethynyl}-N-cyclopropylbenzamide]
1800	0.017	0.019		Nc1ncnc2c1c(C#Cc1cccc(C(=O)NC3CC3)c1)cn2CC1CC1 [cmpd 99, 3-{[4-amino-7-(cyclopropylmethyl)-7H-pyrrolo[2,3-d]pyrimidin-5-yl]ethynyl}-N-cyclopropylbenzamide]
6110	0.023	0.045		CC(C)n1cc(C#Cc2cc(C(=O)NC3CC3)ccc2C#N)c2c(N)ncnc21 [cmpd 108, 3-{[4-amino-7-(propan-2-yl)-7H-pyrrolo[2,3-d]pyrimidin-5-yl]ethynyl}-4-cyano-N-cyclopropylbenzamide]
5880	0.227	0.279		CC(C)n1cc(C#Cc2cccc(C(N)=O)c2)c2c(N)ncnc21 [cmpd 110, 3-{[4-amino-7-(propan-2-yl)-7H-pyrrolo[2,3-d]pyrimidin-5-yl]ethynyl}benzamide]
